Results reported in patent US20240130942A1, “Composition for Treating Hair and Skin” (DR. KURT WOLFF GMBH & CO. KG, priority 2020, published 2024).
“Also recorded” adds a separate entry of the source.

How the values were obtained:
[1] = test system: Human epidermal keratinocyte cells (HaCaT); assay: MTT assay, cell viability of HaCaT cells; format: cell-based; details: after 48 h and 72 h of cultivation, versus control without DMG, FIG. 1
Description: (§1) 1. As part of an in vitro study, the effect of Na-dimethylglycinate was examined in a pH range from […] in a cell culture model with human horn-forming keratinocyte cells. For this purpose, HaCaT cells were cultured for 1, 3, 5, and 7 days in DMEM medium (including fetal calf serum and an antibiotic-antimycotic mix) and, among other things, the viability, proliferation and migration of the cells were determined using suitable measurement methods, and the expression of the growth factors relevant for cell growth was measured.
For this measurement, a so-called MTT assay was used to determine cellular metabolic activity as an indicator of cell viability and cytotoxicity. This colorimetric assay is based on the reduction of a yellow tetrazolium salt (3-(4,5-dimethylthiazol-2-yl)-2,5-diphenyltetrazolium bromide or MTT) to purple formazan crystals by metabolically active cells.
Human epidermal keratinocyte cells (HaCaT) were seeded in a 96-well plate at a cell density of 5,000 cells/well and cultured in medium (DMEM with 10% FBS, 1% penicillin-streptomycin, 0.5% fungizone). […]
Cell viability was determined using the MTT assay. The absorption was measured in quadruplicate and normalized to the control at 24 hours. […]

[2] = test system: Human epidermal keratinocyte cells (HaCaT); assay: CyQUANT assay, proliferation of HaCaT cells; format: cell-based; details: after 48 h and 72 h of cultivation, versus control without DMG, FIG. 2
Description: as §1
A so-called CyQUANT assay was carried out to measure the proliferation. In this fluorescence-based assay, the fluorescent dye used binds to DNA (deoxyribonucleic acid), with the content of cellular DNA being a direct measure of the number of cells in a sample.
Human epidermal keratinocyte cells (HaCaT) were seeded in a 96-well plate at a cell density of 5,000 cells/well and cultured in medium (DMEM with 10% FBS, 1% penicillin-streptomycin, 0.5% fungizone). The next day and after a further 24 h as well as 48 h and 72 h of cultivation at 37° C. and 5% by volume CO2, the cell culture medium without (control) or with the active ingredient concentrations already present was changed. […]
Cell proliferation was determined using the CyQUANT assay. The fluorescence was measured in triplicate and normalized to the control at 24 hours. […]

[3] = test system: HaCaT cells; assay: Wound healing assay, cell migration; format: cell-based, human; details: images after 16 h, 20 h and 24 h, different DMG concentrations, compared to controls without DMG; FIG. 3
Description: as §1
A so-called wound healing assay was carried out to measure migration, based on previously published studies in T. Kawabata, T. Otsuka, K. Fujita, G. Sakai, R. Matsushima-Nishiwaki, O. Kozawa, H. Tokuda, International Journal of Molecular Medicine 2018, 42, 3149-3156. The principle is based on measuring the migration of cells to a cultivation surface that has not yet been colonized over time. […]
The wound was created at time 0 h and images were taken after 16 h, 20 h and 24 h of cultivation. Based on the image recordings, the cultivation surface, which was not yet colonized with cells, was determined using the ImageJ software. The measured values are normalized to the point in time 0 h (maximum size of the wound) and given in %.

[4] = test system: VEGF; assay: Gene expression of VEGF by qRT-PCR in HaCaT cells; format: cell-based, human; details: after 24 hours of cultivation, normalized to GAPDH, versus control without DMG, FIG. 4
Description: VEGF (Vascular Endothelial Growth Factor) promotes the growth and formation of new blood and lymphatic vessels. Gene expression was measured using a standard method known as quantitative real-time PCR (qRT-PCR).
Human epidermal keratinocyte cells (HaCaT) were seeded in a 6-well plate at a cell density of 140,000 cells/well and cultured in medium (DMEM with 10% FBS, 1% penicillin-streptomycin, 0.5% fungizone) at 37° C. and 5% by volume CO2. The next day, the cell culture medium without (control) or with the active substance concentrations already present in each case was changed, and the cells were harvested after 24 h. Gene expression was measured using qRT-PCR based on studies previously published in B. V. Diaz, M.-C. Lenoir, A. Ladoux, C. Frelin, M. Demarchez, S. Michel, Journal of Biological Chemistry 2000, 275, 642-650.
The relative gene expression determined by qRT-PCR (triple determination, normalized to the respective gene expression of a constitutively expressed gene; GAPDH—glyceraldehyde-3-phosphate dehydrogenase) of VEGF is shown. Shown is the mean value with standard deviation.

CN(C)CC(=O)[O-].[Na+] [DMG, sodium dimethylglycinate]
cell viability (MTT assay, absorption normalized to the control at 24 hours) [1]: clear increase | cell proliferation (CyQUANT assay, fluorescence normalized to the control at 24 hours) [2]: clear increase | migration or wound closure [3]: significantly faster | relative gene expression of VEGF [4]: significant increase; also recorded: significantly increased
